Laboratory results reported in patent US12606541B2, “PPARg modulators and methods of use” (Eisai R&D Management Co., Ltd., priority 2020, dated 2026).
pIC50: −log10 of the molar value. Where two headings read alike, the source gives them in different places.

Tests used:
[1] = tested on: UM-UC-9 engineered cells; assay: Cell proliferation / short-term viability assay, CellTiter-Glo 144 h; assay type: cell-based, human; details: read-out: CTGlo 144 h UMUC9.5, G150
In short: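 Viability read by CellTiter-Glo 2.0 luminescence at day 7 versus DMSO-vehicle wells and a T0 plate measured on day 0. Cells: UM-UC-9 engineered assay-ready stocks, 500 cells/well in high-glucose DMEM with 10% FBS, 37° C, 5% CO2.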

[2] = molecular target: T1, His6-TEV-PPARγ-(234-505) (Homo sapiens, UniProt P37231); assay: TR-FRET Assay to Measure Co-R Peptide Recruitment to PPARγ; assay type: biochemical; details: Co-R peptide (SMRT-ID2) recruitment; top final concentration 20 μM; read-out: TR-FRET i-Ag; AC50
T1 construct: The His6-TEV-PPARγ-(234-505) protein for assay was expressed and purified; TEV cleavage site (N); made in house
T1 sequence (P37231 234-505): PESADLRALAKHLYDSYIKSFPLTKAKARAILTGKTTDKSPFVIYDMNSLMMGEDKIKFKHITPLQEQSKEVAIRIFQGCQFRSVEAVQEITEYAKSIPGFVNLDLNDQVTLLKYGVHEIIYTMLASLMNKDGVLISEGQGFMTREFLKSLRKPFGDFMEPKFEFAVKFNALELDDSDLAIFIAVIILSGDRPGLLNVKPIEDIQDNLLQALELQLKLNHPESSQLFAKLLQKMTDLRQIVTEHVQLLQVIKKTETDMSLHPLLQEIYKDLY
In short: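 Corepressor recruitment is measured by adding terbium-labeled anti-His antibody and FITC SMRT-ID2 peptide, at 5 and 200 nM final, after a 20-minute room-temperature protein–compound incubation. After one further hour, signal is converted to percent response between DMSO and 500 nM T0070907 wells.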

AC50 [2] | Compound | pIC50 [1] | pIC50 ([1]; Homo sapiens, UM-UC-9, 144 h)
14.4 nM | COc1cc(-c2cc(C(=O)N3CC[C@H](C(=O)NCc4ncc(N5CC6CC5CN6)cc4Cl)CC34CC4)n[nH]2)c(F)cn1 (single isomer, unassigned) [Example 462-B] | 6.24 | –
126 nM | COc1cc(-c2cc(C(=O)N3CC[C@H](C(=O)NC4CN(C5CCOC5)C4)CC34CC4)n[nH]2)c(F)cn1 (single isomer, unassigned) [Example 433-A] | 6.46 | –
941 nM | COc1cc(-c2cc(C(=O)N3CCC(C(=O)N(C)Cc4cccc(Cl)c4)CC3)n[nH]2)c(F)cn1 [Example 161, N-(3-chlorobenzyl)-1-(5-(5-fluoro-2-methoxypyridin-4-yl)-1H-pyrazole-3-carbonyl)-N-methylpiperidine-4-carboxamide] | – | 5.71
696 nM | COc1cc(-c2cc(C(=O)N3CC[C@H](C(=O)NCC4CCS(=N)(=O)C4(C)C)CC34CC4)n[nH]2)c(F)cn1 (mixture of isomers) [Example 372-A] | – | < 5.00
1.3 nM | COc1cc(-c2cc(C(=O)N3CC[C@H](C(=O)NCc4ncc(OC5COC5)cc4Cl)CC34CC4)n[nH]2)c(F)cn1 [Example 446, (S)—N-((3-chloro-5-(oxetan-3-yloxy)pyridin-2-yl)methyl)-4-(5-(5-fluoro-2-methoxypyridin-4-yl)-1H-pyrazole-3-carbonyl)-4-azaspiro[2.5]octane-7-carboxamide] | – | 7.56
194 nM | COc1cc(-c2cc(C(=O)N3CCC(C(=O)NCc4cn5cccc(F)c5n4)CC3)n[nH]2)c(Cl)cn1 [Example 214, 1-(5-(5-chloro-2-methoxypyridin-4-yl)-1H-pyrazole-3-carbonyl)-N-((8-fluoroimidazo[1,2-a]pyridin-2-yl)methyl)piperidine-4-carboxamide] | – | 5.80
238 nM | COc1cc(-c2cc(C(=O)N3CCC(C(=O)NCC4(O)CCCCC4)CC3)n[nH]2)c(Cl)cn1 [Example 134, 1-(5-(5-chloro-2-methoxypyridin-4-yl)-1H-pyrazole-3-carbonyl)-N-((1-hydroxycyclohexyl)methyl)piperidine-4-carboxamide] | – | 5.96

Compound | AC50 [2] | pIC50 [1] | pIC50 ([1]; Homo sapiens, UM-UC-9, 144 h)
COc1cc(-c2cc(C(=O)N3CCC(C(=O)NC4CCC(C(F)(F)F)C(O)C4)CC34CC4)n[nH]2)c(F)cn1 (mixture of isomers) [Example 501, (S)-4-(5-(5-fluoro-2-methoxypyridin-4-yl)-1H-pyrazole-3-carbonyl)-N-((1R,3R,4S)-3-hydroxy-4-(trifluoromethyl)cyclohexyl)-4-azaspiro[2.5]octane-7-carboxamide and (S)-4-(5-(5-fluoro-2-methoxypyridin-4-yl)-1H-pyrazole-3-carbonyl)-N-((1S,3S,4R)-3-hydroxy-4-(trifluoromethyl)cyclohexyl)-4-azaspiro[2.5]octane-7-carboxamide] | 5.4 nM | 7.89 | –
Cc1cc(-c2cc(C(=O)N3[C@@H]4CC[C@H]3C[C@H](C(=O)NCc3cccc(Cl)c3)C4)n[nH]2)c(F)cn1 [Example 268, (1R,3S,5S)—N-[(3-chlorophenyl)methyl]-8-[5-(5-fluoro-2-methylpyridin-4-yl)-1H-pyrazole-3-carbonyl]-8-azabicyclo[3.2.1]octane-3-carboxamide] | 7 nM | – | 7.44
(S)—N—((S)-3,4-dihydro-2H-pyrano[3,2-b]pyridin-4-yl)-4-(5-(5-fluoro-2-methoxypyridin-4-yl)-1H-pyrazole-3-carbonyl)-4-azaspiro[2.5]octane-7-carboxamide and (S)—N—((R)-3,4-dihydro-2H-pyrano[3,2-b]pyridin-4-yl)-4-(5-(5-fluoro-2-methoxypyridin-4-yl)-1H-pyrazole-3-carbonyl)-4-azaspiro[2.5]octane-7-carboxamide [Example 366] | 28.8 nM | 7.38 | –
